# Reference: patent US20220218719A1, “MATRIX COMPOSITION COMPRISING (S)-5-BENZYL-N-(5-METHYL-4-OXO-2,3,4,5-TETRAHYDROBENZO[B][1,4]OXAZEPIN-3-YL)-4H-1,2,4-TRIAZOLE-3-CARBOXAMIDE” (GLAXOSMITHKLINE INTELLECTUAL PROPERTY DEVELOPMENT LIMITED, priority 2019, published 2022)
# Where two headings read alike, the source gives them in different places.
# Key:
# [1] = Early clinical studies: PK profile of Compound 1 given as immediate release (IR) formulation; type: in vivo; settings: human, plasma, oral
# Protocol: The formulations used in early clinical studies included a 0.1 mg/mL oral solution to support doses up to 5 mg; active-pharmaceutical-ingredient (API) in HPMC capsules for doses between 5 mg to 120 mg; and roller-compacted IR tablets of 10, 20 and 30 mg strength.
# The pharmacokinetic (PK) profile of Compound 1 when administered as an immediate release (IR) formulation was characterized by rapid absorption and elimination with time to maximum concentration (Tmax) of approximately 2 hours post-dose. […] A majority of the systemic exposure to GSK2982772 was associated with the shorter half-life of 2-3 hours.
# [2] = plasma/blood, 120 mg dose of IR formulation; cited from earlier work
structure (smiles),measurement,setting,value
"CN1C(=O)[C@@H](NC(=O)c2nnc(Cc3ccccc3)[nH]2)COc2ccccc21 [Compound 1, (S)-5-benzyl-N-(5-methyl-4-oxo-2,3,4,5-tetrahydrobenzo[b][1,4]oxazepin-3-yl)-4H-1,2,4-triazole-3-carboxamide]",half-life,"[1]; phase until approximately 12 hours post-dose, read-out: elimination half-life (t1/2)",2 to 3 h
same,Tmax,"[1]; post-dose, read-out: time to maximum concentration (Tmax)",~2 h
same,half-life,[1]; read-out: slower terminal phase t1/2,5 to 6 h
same,t1/2,[2],2 to 3 h
